One data set deals with Human Carboanhydrase II (Homo sapiens, UniProt P00918). Kind of data set: carbonic anhydrase activity assay (pH indicator method). To be noted: for carbonic anhydrase inhibition: result in words. In kind it is biochemical.
Data set [1] relates to HSV-1. As to the kind of experiment: activity selectivity assay, HSV-1 infected Vero cells. The data set is classed as cell-based. To be noted: Human alphaherpesvirus 1. How it is done:
(§1) HSV (HSV-1 Walki, HSV-1F, HSV-2 MS, HSV clinical isolates and HSV resistant strains) was cultivated on Vero cells (ATCC CCL-81) under the following conditions: The cells were grown in M199 medium (5% foetal calf serum, 2 mM glutamine, 100 IU/mL penicillin, 100 μg/mL streptomycin) in cell culture bottles at 37° C. and 5% CO2. The cells were splitted twice per week (1:4). For the infection, the medium was removed, the cells were washed with Hank's solution, detached using 0.05% trypsin, 0.02% EDTA and incubacted at a density of 4×10^5 cells/mL under the above-mentioned conditions for 24 h. The medium was removed and the virus solution was added at an m.o.i of <0.05 in a volume of 2 mL per 175 cm^2 surface. The infected cells were incubated at 37° C., 5% CO2 for 1 h and then the medium was made up to a volume of 50 mL per 175 cm^2 bottle. […] The virus was released by freezing (−80° C.) and thwawing (37° C.) the infected cultures twice. Cell debris was removed by centrifugation (300 g, 10 min, 4° C.) and the supernatant was frozen in aliquots at −80° C.
(§2) The virus titre was determined using a plaque assay. To this end, Vero cells were seeded in 24-well plates at a density of 4×10^5 cells per well and, after 24 h of incubation (37° C., 5% CO2) infected with 100 μL of inoculum (dilutions (10^−2 to 10^−12) of the virus stock). 1 h after the infection, the medium was removed and the cells were covered with 1 mL of overlay medium (0.5% methylcellulose, 0.22% sodium bicarbonate, 2 mM glutamine, 100 IU/mL penicillin, 100 μg/mL streptomycin, 5% foetal calf serum in MEM-Eagle medium with Earl's salt) and incubated for 3 d in a cell incubator at (37° C., 5% CO2). The cells were then fixated using 4% formaline for 1 h, washed with water, stained with Giemsa for 30 min and then washed and dried. Using a plaque viewer, the virus titre was determined.
(§3) The antiviral action was determined using a patented (DE10235967 and WO2004/015416) and subsequently published activity selectivity assay (G. Kleymann et al. J. Biomol. Screen. 2004; 9, 578) in 96- or 384-well mictrotitre plates using various cell lines of neuronal, lymphoid and epithelial origin, such as, for example, Vero (african green monkey kidney cells), MEF (murine embryonal fibroblasts), HELF (human embryonal fibroblasts), NT2 (human neuronal cell line) or Jurkat (human lymphoid T-cell line). The relevant experimental details of the above mentioned patent and publication to evaluate the antiviral activity of the invention (disclosed compounds) are described below.
(§4) The effect of the substances on the spreading of the cytopathogenic effect was determined in comparision to the reference compound acyclovir-sodium (Zovirax™), a clinically approved anti-herpes chemotherapeutic.
(§5) The compounds (50 mM stock solution dissolved in DMSO) are examined on microtitre plates (for example 96-well flat bottom cell culture plates) at a final concentration of 250 to 0.5 μM or, in case of potent antiviral compounds, 250 to 0.5 nM in 2 to 4 replications (4 to 2 substances per plate). Also examined are toxic and cytostatic effects or precipitation of the compounds. […]

Data set [2] relates to HSV-2. Kind of data set: animal model, intranasal HSV-2 infection of mice, survival. Particulars: Human alphaherpesvirus 2, inhaled or nasal, 120 h; HSV-2, mice, treatment for 5 days; read-out: ED50 (50% of the infected animals survive). The data set is classed as in vivo, BALB/cABom strain. As for the experimental part: (§6) Animal experiments were performed according to patent WO2001/047904 or subsequent publications (U. A. K. Betz et al. Antimicrob. Agents Chemother. 2002:46, 1766 or G. Kleymann et al. Nat. Med. 2002; 8, 392). The relevant experimental details of the above mentioned patent and publication to evaluate the antiviral activity of the invention (disclosed compounds) in-vivo (animal models) are described below.
(§7) 6 week-old female mice, BALB/cABom strain were obtained from a commercial breeder.
(§8) Infection: The animals were anaesthetized with Et2O in a sealed glass vessel. 50 μL of a dilution of the virus stock (infection dose 5×10^4 PFU (Plaque forming units)) were introduced into the nose of the anaesthetized animals using a pipette. In 90 to 100% of the animals, this infection dose causes death by generalized infection with prominent repiratory and central-nervous symptoms on average after 5 to 8 days.
(§9) 6 hours after infection animals were treated with doses of 0.1-150 mg/kg of body mass, 3 times per day at 7 am, […] (tid) or 2 times per day at 7 am and […] (bid) or once daily at […] (od) for a period of 5 days. […] After the last administration, the animals were monitored further and the time of death was determined.

Another data set relates to HSV-1 ACV resistant. As to the kind of experiment: activity selectivity assay, HSV-1 ACV resistant. The data set is classed as cell-based. Particulars: Human alphaherpesvirus 1. How it is done: as §1, §2, §3, §4, §5
The nature of data set [3]: aqueous solubility (PBS, pH 7.4), shake flask. In kind it is physicochemical. How it is done:
The aqueous solubility (PBS, pH 7.4) was determined at Eurofins, Cerep, Panlabs according to C. A. Lipinski et al. Adv. Drug Del. Rev. 1997:46, 3. Measurement of the aqueous solubility was performed according to Lipinski, C. A. et al. Adv. Drug Del. Rev. 1997:46, 3. The relevant information from the literature is described below. […] In addition, chromatographic purity (%) was defined as the peak area of the principal peak relative to the total integrated peak area in the HPLC chromatogram of the calibration standard.

Data set [4] relates to HSV-1. As to the kind of experiment: animal model, intranasal HSV-1 infection of mice, survival. In kind it is in vivo, BALB/cABom strain. Particulars: Human alphaherpesvirus 1, inhaled or nasal, 120 h; HSV-1, mice, treatment for 5 days; read-out: ED50 (50% of the infected animals survive). How it is done: as §6, §7, §8, §9
Data set [5] relates to HSV-2. As to the kind of experiment: activity selectivity assay, HSV-2 infected Vero cells. The data set is classed as cell-based. To be noted: Human alphaherpesvirus 2. How it is done:
as §1, §2, §3, §4, §5

Another data set can be described thus: in vivo. To be noted: male, C57BL/6J, mouse, po, 10 mg/kg. Also on record: species or system mice strain C57BL/6J. How it is done:
Pharmcokinetic parameters were determined for Example 7, 7(−), 7(+) and 7c in male mice strain C57BL/6J at an intraveneous (i.v.) dose of 5 mg/kg (5% DMSO in heterologous plasma, 2.5 mL/kg) and an oral dose (p.o) of 10 mg/kg (DMSO/0.5% HPMC (5:95), 5 mL/kg).

Values after ≈ are worked out from the molar mass of the structure shown. A value given as a limit tells only on which side of the number the result lay.

The record followed here is patent publication US11278534B2, “Enantiomers of substituted thiazoles as antiviral compounds” (Innovative Molecules GmbH, priority 2017, dated 2022).

Regarding `Cc1nc(N(C)C(=O)Cc2ccc(-c3cc(F)ccc3F)cc2)sc1S(C)(=N)=O` (racemic) [Example 7, 2-(2′,5′-Difluoro-[1,1′-biphenyl]-4-yl)-N-methyl-N-(4-methyl-5-(S-methylsulfonimidoyl)thiazol-2-yl)acetamide], the concentration for half-maximal inhibition (IC50) against Human Carboanhydrase II was more than 10 µM; in the data set with HSV-1 [1] it was 25 to 100 nM; in the data set with HSV-1 ACV resistant it was 25 to 100 nM; in the data set with HSV-2 [5] it was 25 to 100 nM. At Human Carboanhydrase II, the carbonic anhydrase inhibition result is recorded as “no or significantly reduced carbonic anhydrase inhibition”. For the same compound, the 50% effective dose (ED50) in the data set with HSV-2 [2] and with HSV-1 [4] was less than 10 mg/kg throughout. The solubility at 24 h in data set [3] (aqueous buffer, kinetic from dmso stock, pH 7.4, shake flask, 24 h incubation, rt, read-out: Solubility [μM] (PBS, pH 7.4, 200 μM Test concentration)) turned out to be 5 µM (≈ 2.18 µg/mL). The “increase of aqueous solubility in comparison to Example 87 (WO2001/047904)” value in data set [3] (pH 7.4) was “at least one order of mangitude”.
`Cc1nc(N(C)C(=O)Cc2ccc(-c3ccccn3)cc2)sc1S(=N)(=O)C1CC1` (racemic) [Example 7b, N-[5-(Cyclopropylsulfonimidoyl)-4-methyl-thiazol-2-yl]-N-methyl-2-[4-(2-pyridyl)phenyl]acetamide]: the concentration for half-maximal inhibition (IC50) against Human Carboanhydrase II was more than 10 µM; in the data set with HSV-1 [1], 100 to 400 nM; in the data set with HSV-1 ACV resistant, 100 to 400 nM; in the data set on HSV-2 [5] it was 250 to 1000 nM. For the same compound, the carbonic anhydrase inhibition result on Human Carboanhydrase II is on record as “no or significantly reduced carbonic anhydrase inhibition”.
On to `Cc1nc(N(C)C(=O)Cc2ccc(-c3ccccn3)cc2)sc1[S@](C)(=N)=O` (racemic) [Example 7c, N-Methyl-N-[4-methyl-5-(methylsulfonimidoyl)thiazol-2-yl]-2-[4-(2-pyridyl)phenyl]acetamide], for which the IC50 against Human Carboanhydrase II is more than 10 µM; with HSV-1 [1], 150 to 600 nM; in the data set on HSV-1 ACV resistant it was 150 to 600 nM; in the data set on HSV-2 [5], 200 to 1500 nM. In the data set “in vivo”, this compound yielded an AUC of 22500 ng·h/mL. Moreover, the maximum concentration (Cmax) in “in vivo” was 4290 ng/mL.
As to `Cc1nc(N(C)C(=O)Cc2ccc(-c3ccccn3)cc2)sc1[S@](C)(=N)=O` (single isomer, unassigned) [Example 7c(+), (+)-N-Methyl-N-(4-methyl-5-(S-methylsulfonimidoyl)thiazol-2-yl)-2-(4-(pyridin-2-yl)phenyl)acetamide], the IC50 on Human Carboanhydrase II was more than 10 µM; with HSV-1 [1] it was 300 to 750 nM; in the data set on HSV-1 ACV resistant, 300 to 750 nM; with HSV-2 [5], 500 to 1500 nM. On Human Carboanhydrase II, the carbonic anhydrase inhibition result is on record as “no or significantly reduced carbonic anhydrase inhibition”. The compound also returned an area under the curve (AUC) in the data set “in vivo” of 31200 ng·h/mL. The highest concentration (Cmax) in the data set “in vivo” stood at 5700 ng/mL.
With `Cc1nc(N(C)C(=O)Cc2ccc(-c3ccccn3)cc2)sc1[S@@](C)(=N)=O` (single isomer, unassigned) [Example 7c(−), (−)-N-Methyl-N-(4-methyl-5-(S-methylsulfonimidoyl)thiazol-2-yl)-2-(4-(pyridin-2-yl)phenyl)acetamide], the half-maximal inhibitory concentration (IC50) against Human Carboanhydrase II is more than 10 µM; in the data set on HSV-1 [1], 75 to 300 nM; with HSV-1 ACV resistant it was 75 to 300 nM; with HSV-2 [5], 100 to 750 nM. The carbonic anhydrase inhibition entry at Human Carboanhydrase II was “no or significantly reduced carbonic anhydrase inhibition”. This compound also showed an AUC in “in vivo” of 38000 ng·h/mL. Besides, the highest level in the data set “in vivo” (Cmax) was 6650 ng/mL.
For `Cc1nc(N(C)C(=O)Cc2ccc(-c3cc(F)ccc3F)cc2)sc1[S@](C)(=N)=O` [Example 7(+), (+)-(R)-2-(2′,5′-Difluoro-[1,1′-biphenyl]-4-yl)-N-methyl-N-(4-methyl-5-(S-methylsulfonimidoyl)thiazol-2-yl)acetamide], the IC50 on Human Carboanhydrase II was more than 10 µM; with HSV-1 [1], 30 to 200 nM; with HSV-1 ACV resistant, 30 to 200 nM; with HSV-2 [5], 30 to 200 nM. Besides, the carbonic anhydrase inhibition result on Human Carboanhydrase II is recorded as “no or significantly reduced carbonic anhydrase inhibition”.
For `Cc1nc(N(C)C(=O)Cc2ccc(-c3cc(F)ccc3F)cc2)sc1[S@@](C)(=N)=O` [Example 7(−), (−)-(S)-2-(2′,5′-Difluoro-[1,1′-biphenyl]-4-yl)-N-methyl-N-(4-methyl-5-(S-methylsulfonimidoyl)thiazol-2-yl)acetamide], the concentration for half-maximal inhibition (IC50) on Human Carboanhydrase II was more than 10 µM; in the data set on HSV-1 [1], 10 to 50 nM; in the data set with HSV-1 ACV resistant, 10 to 50 nM; in the data set on HSV-2 [5], 10 to 50 nM. Besides, the carbonic anhydrase inhibition result at Human Carboanhydrase II is “no or significantly reduced carbonic anhydrase inhibition”. Besides, the 50% effective dose (ED50) in the data set on HSV-1 [4] was less than 5 mg/kg.

What is called IC50 is the point on the concentration scale where inhibition reaches its midpoint. In general, ED50 refers to the dose that gives a 50% effect, or the effect in half of the subjects. What is called AUC is the area under the concentration-time curve, a measure of exposure. As usually defined, the Cmax is the peak of the concentration-time curve.
